# Measurements: patent publication US9211325B2, “Peptide adjuvants” (priority 2008, dated 2015)
# Entries after “also recorded” stand apart in the source; their conditions may differ.
# Tested on: H5N1 A\Hanoi\30408\2005
# Design: species or system BALB/c mice
# Settings: mouse, in vivo
substance,measurement,value
KWCEC (Short peptide sequence not known to occur in nature) [5mer4],clinical signs of disease,no clinical signs of disease
same,survival,90%
same,survival (protected from death),50%
same,weight loss,minimal weight loss; also recorded: no statistically significant weight loss
